US11506670B2, “Method of genome-wide direct identification of electrophile-sensing targets” (Cornell University, priority 2018, dated 2022)
Where a SMILES comes first, the peptide text is derived from it. The star is where a group is joined. Cbz = O=C(OCc1ccccc1)*

Columns and labels:
[1] = Chemical stability of HNE(alkyne); assay type: physicochemical; settings: air
Protocol: (iv) Isolate the pure product via flash chromatography using hexanes: Et20 (4:1 v/v) as eluent (Rf=0.5 in hexanes: Et2O 4:1). […] The purified material should be characterized promptly and during this time may be stored under Ar at room temperature. For long-term storage, HNE(alkyne) should be stored as one-shot aliquots in DMSO at −80° C. and must be used immediately once thawed.

PTEN = molecular target: T1, PTEN (Homo sapiens, UniProt P60484); test: InPAkt FRET biosensor assay of PIP3 after PTEN-targeted T-REX; assay type: cell-based
T1 construct: host or cells: HEK-293
T1 sequence (P60484 whole entry): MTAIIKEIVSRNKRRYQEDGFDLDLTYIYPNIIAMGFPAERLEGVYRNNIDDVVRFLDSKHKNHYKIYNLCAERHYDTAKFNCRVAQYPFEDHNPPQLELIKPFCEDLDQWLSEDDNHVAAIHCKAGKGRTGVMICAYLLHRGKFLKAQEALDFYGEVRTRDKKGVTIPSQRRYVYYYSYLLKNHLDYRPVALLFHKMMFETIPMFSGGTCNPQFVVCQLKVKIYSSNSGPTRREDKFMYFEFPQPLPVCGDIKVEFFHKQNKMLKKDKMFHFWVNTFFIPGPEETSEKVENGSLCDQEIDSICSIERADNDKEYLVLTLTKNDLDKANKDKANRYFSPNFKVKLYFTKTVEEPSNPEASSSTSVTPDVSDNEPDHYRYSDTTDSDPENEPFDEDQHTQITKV
Protocol: (ii) Transfect each plate with 1000 ng of Halo-PTEN and 1000 ng of InPAkt reporter plasmid. Transfect with TransIT-2020 following the manufacturer's protocol.
(iv) Treatment of cells with T-REX™ delivery photocaged precursor, photo-uncaging and cell fixing. Treat the cells with photocaged precursor as described in Section 2, Step 39A. The amounts of reagents used should be scaled up for 4×35 mm adherent culture dish.
(v) Irradiate the cells with UV light only for 3 min. After shining light on the sample. Incubate the plates at 37° C. for 10 hours. Longer irradiation time will result in photobleaching of the FRET reporter proteins.
(vi) Imaging and data analysis. […] Blue laser (408 nm) is used for excitation. Record the signals in cyan channel (463-498 nm) and yellow channel (525-620 nm).
(vii) Analyse the images using ImageJ software (NIH). To do this, determine the average cyan and yellow fluorescence intensity for each cell by drawing a free hand circle around the image. Repeat this for each condition such that 150-200 cells were analyzed each time from multiple different frames. Calculate the ratio of mean yellow to mean cyan fluorescence intensity for each condition, then plot these values and analyse the results using prism. To get reliable results, it is important to collect images from at least 150 individual cells per condition.

γ-H2AX [2] = test: T-REX in zebrafish embryos, whole-mount γ-H2AX immunofluorescence; assay type: in vivo, zebrafish (Danio rerio); settings: 3 h post light exposure
Protocol: (§1) Fertilized eggs at the 1-2 cell stage from casper zebrafish were injected with mRNA (1.6 mg/ml) into the yolk sack. Immediately after injection, embryos were pooled, and separated into two petri dishes (10 cm) filled with 30 mL 10% Hank's salt solution with methylene blue and penicillin (100 U/mL)/streptomycin (100 μg/ml). To one set was added the HaloTag-targetable photocaged precursor to HNE (Ht-PreHNE, hereafter) (<15 μM) and the other DMSO in the dark. Embryos were maintained at 28° C. in the dark for 28 h then they were washed in 10% Hank's solution with no methylene blue/antibiotic (3 times for 30 min each). Embryos were moved to 6-well plates. Half of the embryos (Ht-preHNE-treated or -untreated) were irradiated with UV light (5 min), and the other half of each set was not irradiated. Embryos were left for 8 h at which point they were euthanized, washed with cold 1×DPBS and dechorionated (and deyolked if protein analysis was to be undertaken).
DDR preconditioning occurs in zebrafish embryos. […] Subsequently, the fish were fixed and γ-H2AX levels were measured using whole-mount immunofluorescence.

[3] = test system: Ube2V2 ubiquitination and cellular Ub pools; test: Ubiquitination analysis by IP, K63-TUBE pulldown and western blot in HEK293T cells; assay type: cell-based, human; settings: for amount of ubiquitinated-Ube2V2 formed upon targeted-HNEylation: proteasome inhibitor treatment with T-REX
Protocol: Cells were lysed in 1×RIPA buffer containing in final concentrations 1× Protease inhibitor, 1 mM sodium orthovanadate and 1 mM PMSF, by rapid freeze-thaw (×3). Cell debris was removed and the supernatant was collected after centrifugation at 18,000×g for 20 min at 4° C. Protein concentration was determined using Bradford assay. 30-50 μg of total lysates were subjected to SDS-PAGE and the gel was transferred onto a PVDF membrane at 100 V for 1 h at 4° C. or at 40 V overnight at 4° C. Membrane was blocked with 10% milk and probed with various antibodies at the indicated dilutions (Table 4, above).
HEK 293T cells were seeded in 2×60 cm^2 plates. After the cells reached 60% confluence (˜18-24 h), the old media was replaced with 8 mL of fresh complete media. Cells were transfected with 7.5 μg of the designated Halo clone and 30 μL PEI (1 mg/mL) in 600 μL in Opti-MEM media for 24-36 h after which the cells were treated with 25 μM Ht-PreHNE for 2.5 h. Rinsing and light shining protocol were as described above. Cells were harvested, pooled, washed twice with chilled 1×DPBS and flash frozen. Cell lysis was performed in 100-200 μL per 1.5×10^6 cells of either: lysis buffer [containing in final concentrations 50 mM HEPES (pH 7.6), 150 mM NaCl, 1% Nonidet P-40 and 1× Roche cOmplete, mini, EDTA-free protease inhibitor cocktail] for Flag pull down; or RIPA buffer [containing in final concentrations 50 mM HEPES (pH 7.6), 150 mM NaCl, 1% Nonidet P-40, 0.1% SDS, 0.25% sodium deoxycholate, and 1× Roche cOmplete, mini, EDTA-free protease inhibitor cocktail] for HA pull down, followed by rapid freeze-thaw cycles (×3). Lysate was clarified by centrifugation at 18,000×g for 10 min at 4° C. Total protein concentration was determined using Bradford assay with BSA as standard. The lysate was subsequently diluted to 2 mg/mL with binding buffer containing in final concentrations 50 mM HEPES (pH 7.6), 150 mM NaCl, 1× Roche cOmplete, mini, EDTA-free protease inhibitor cocktail, and 0.1% Tween-20. This diluted lysate was subjected to either 50-100 μL bed volume of ANTI-FLAG® M2 affinity gel (A2220, Sigma) or monoclonal anti-HA-agarose (clone HA-7, A2095, Sigma) that had been pre-equilibrated with the binding buffer above. The sample was incubated with beads for 2-3 h at 4° C. by end-over-end rotation after which time the supernatant was removed post-centrifugation at 1000×g (anti-FLAG pull down) or 5000×g (anti-HA pull down) for 3 min. The beads were washed three times at 4° C. with 500 μL wash buffer containing in final concentrations 50 mM HEPES (pH 7.6), 150 mM NaCl, 1× Roche cOmplete, mini, EDTA-free protease inhibitor cocktail, and 0.1% Tween-20, using end-over-end rotation over 10 min during each wash. The bound protein was eluted by either incubating with 0.15 mg/mL 3× flag peptide for 2 h at 4° C. (anti-Flag pull down) or by boiling the beads at 98° C. for 10 min with 30 μL of 3× Laemmeli dye containing 6% βME (anti-HA pull down). The sample was subjected to SDS-PAGE and transferred to a PVDF membrane for western blot analysis described above.
Cells were grown and transfected as described above. After T-REX™ delivery, cells were harvested and lysed in 100-200 μL (˜1.5×10^6 cells) of lysis buffer [containing in final concentrations 50 mM HEPES (pH 7.6), 300 nM Biotin K63-TUBE, 150 mM NaCl, 5 mM EDTA, 3 mM 1,10-phenanthroline, 5 mM NEM, 20 μM PR-619, 1% Nonidet P-40 and 1× Roche cOmplete, mini, EDTA-free protease inhibitor cocktail] according to manufactures' manual (Biotin K63 TUBE, Lifesensors). Lysate was clarified by centrifugation at 18,000×g for 10 min at 4° C. Total protein concentration was determined using Bradford assay using BSA as standard. […]

zebrafish embryos = test: Zebrafish embryo morphology and survival, stereomicroscope; assay type: in vivo, zebrafish (Danio rerio)
Source text: Fish were then dechorionated, deyolked, lysed and HNEylated proteins were captured by Click coupling with biotin-azide and subsequent streptavidin pulldown (see workflow in FIG. 4A, Clicking with biotin-azide). HNEylation of Ube2V2 in fish also led to polyubiquitination of Ube2V2, indicating mechanistic conservation between fish and humans, and functional relevance of this electrophile regulatory pathway in vivo. Also see FIG. 14C. […] After 36-h fish were dechorionated and imaged using a stereomicroscope. Scale bars, 545 μm.
as §1, with “Embryos were left for 8 h at which point they were euthanized, washed with cold 1×DPBS and dechorionated (and deyolked if protein analysis was to be undertaken).” left out

γ-H2AX [4] = test: γ-H2AX immunofluorescence in HEK293T cells; assay type: cell-based, human
Protocol: Cells were grown to 70% confluence in 35 mm glass-bottomed dishes and transfected with HaloTagged plasmids. T-REX™ delivery was performed as mentioned above. […] The fixative was aspirated and the cells washed three times with 1×DPBS with 5-min incubation at room temperature. Blocking and permeabilization was performed in one-step by incubation at 37° C. for 1 h in 1×DPBS containing 3% BSA and 0.2% Triton X-100. Cells were subsequently incubated with primary antibody (1:300, Table 4) in incubation buffer (1% BSA, 0.02% Triton X-100 in 1×DPBS) for 2 h at room temperature. Cells were rinsed 3 times with 1×DPBS with 5 min incubation for each wash and subsequently incubated in dark for 1 h at room temperature with corresponding second antibody (1:1000, Table 4) in incubation buffer. Cells were rinsed 3 times with 1×DPBS with 5 min incubation for each rinse. DAPI (Sigma) was freshly prepared in 1×DPBS from 2 mg/mL wt./v stock solution in water and added to the wells at the final concentration of 0.2 μg/mL. The samples were incubated in dark for 1 min and washed once with 1×DPBS and stored at 4° C. in dark till images were taken using a Zeiss LSM 710 meta confocal fluorescence microscope. Image analysis was performed using Image-J (NIH).

Ube2N = test: Lentiviral shRNA knockdown of Ube2N, western blot; assay type: cell-based, human
Protocol: HEK293T packaging cells were seeded and grown overnight in antibiotic free media in 6 well plates. At 80% confluence, each well was transfected with packaging plasmid (pCMV-R8.74psPAX2, 500 ng), envelope plasmid (pCMV-VSV-G, 50 ng) and pLKO vector (500 ng) using TransIT.LT1 as per the manufacturer's protocol. After 18 h, media were removed and replaced with 20% serum containing media. After 24 h, media containing viruses were collected, spun down and passed through a 0.6 micron filter and stored at −80° C. or used directly.
Cells in log phase were treated with 0.6 ml of virus supernatant (from above) in 8 μg/ml polybrene in a total of 6 ml of media in a 6-well plate. After 24 h, media were removed and replaced with media containing 2 μg/ml puromycin (which was completely toxic to all lines used in this study). Cells were cultured until the plate was confluent, then cells were split and moved to a 10 cm dish in 2 μg/ml puromycin containing media and grown again until reaching confluence. At this, the line was considered to be “selected”, and target gene expression was analyzed by western blot and compared to shRNA controls. […]
Cells were lysed in 1×RIPA buffer containing in final concentrations 1× Protease inhibitor, 1 mM sodium orthovanadate and 1 mM PMSF, by rapid freeze-thaw (×3). […] Protein concentration was determined using Bradford assay. […]

**Q.** With C#CCCCC(O)C=CC=O (stereo not drawn) [HNE(alkyne), 4-hydroxynonenal alkyne] as the molecule, how does the stability [1] read?
**A.** Its stability is “highly unstable to air-oxidation and polymerization”.

**Q.** With C#CCCCC(O)/C=C/COc1c(CC(=O)NCCOCCOCCCCCCCl)ccc2c1C(=O)c1ccccc1C2=O (stereo not drawn) [Ht-PreHNE] as the molecule, how does the FRET signal (PTEN; T-REX on Halo-PTEN vs light alone) read?
**A.** Its FRET signal is “selectively enhances FRET signal”.

**Q.** What about the “YFP:CFP emission ratio” value (PTEN; precursor treatment alone, no light) of the same molecule?
**A.** The value was “did not perturb the emission ratio significantly”.

**Q.** And the “γ-H2AX levels in zebrafish embryos” value (γ-H2AX [2])?
**A.** The value was “regulates γ-H2AX levels in zebrafish”.

**Q.** What does the source list for CC(C)C[C@@H](C=O)NC(=O)[C@H](CC(C)C)NC(=O)[C@H](CC(C)C)NC(=O)OCc1ccccc1 [MG132] (Cbz-Leu-Leu-Leu-aldehyde)?
**A.** pan cellular poly-Ub-pools ([3]; HEK293T): elevated pan-Ub-pools; amount of ubiquitinated-Ube2V2 formed upon targeted-HNEylation [3]: had no effect on the amount of ubiquitinated-Ube2V2

**Q.** For CO[C@@]12[C@H](COC(N)=O)C3=C(C(=O)C(C)=C(N)C3=O)N1C[C@@H]1N[C@@H]12 [Mitomycin-C], which “embryo deformity / death” value (zebrafish embryos) is on record?
**A.** The value was “severely deformed or died during treatment”.

**Q.** What about the “γ-H2AX levels in zebrafish embryos” value (γ-H2AX [2]) of the same molecule?
**A.** Its value is “high level of γ-H2AX-expression relative to untreated fish”.

**Q.** And the “γ-H2AX in Ube2V2-C69S-expressing and Ube2N-deficient cells” value (γ-H2AX [4])?
**A.** The value was “still upregulated γ-H2AX”.

**Q.** And the γ-H2AX upregulation (γ-H2AX [4]; positive control)?
**A.** Its γ-H2AX upregulation is 3-4 fold.

**Q.** Which results are given for N#CSc1cc(SC#N)c(N)nc1N [PR-619]?
**A.** K63-linked total cellular Ub pools ([3]; HEK293T): promoted elevation of K63-ubiquitination; ubiquitination of Ube2V2 wt vs C69S ([3]; HEK293T): promote ubiquitination of Ube2V2(C69S) as efficiently as wt-Ube2V2

**Q.** For CC(C)C[C@H](NC(=O)[C@H](Cc1ccccc1)NC(=O)c1cnccn1)B(O)O [bortezomib], which “pan cellular poly-Ub-pools” value ([3]; HEK293T) is on record?
**A.** Its value is “elevated pan-Ub-pools”.

**Q.** What about the “amount of ubiquitinated-Ube2V2 formed upon targeted-HNEylation” value [3] of the same molecule?
**A.** The value was “had no effect on the amount of ubiquitinated-Ube2V2”.

**Q.** With “#18: shRNA targeting Ube2N in pLKO1 vector (SEQ ID NO: 65) (CCGGGCTGAGGCATTTGTGAGTCTTCTCGAGAAGACTCACAAATGCCTCAGCTTTTT)” as the molecule, how does the Ube2N knockdown strength (Ube2N) read?
**A.** The Ube2N knockdown strength was “weaker knockdown”.
